# From PMC2833169, “Anti-malarial activity of a non-piperidine library of next-generation quinoline methanols” (Malaria Journal, 2010)
# Where two headings read alike, the source gives them in different places.
# Tests used:
# [1] = test system: P. falciparum strain W2; assay: labeled hypoxanthine susceptibility assay, P. falciparum W2; format: cell-based, Plasmodium falciparum; details: Plasmodium falciparum
# Procedure: (§1) The in vitro activities of quinoline methanols against P. falciparum strains W2, D6, TM91C235, and TM90C2A were evaluated using the traditional labeled hypoxanthine assay of Desjardins et al as modified by Milhous et al. These four P. falciparum strains were selected since they have various levels of resistance to conventional anti-malarials.
# [2] = test system: P. falciparum strain D6; assay: labeled hypoxanthine susceptibility assay, P. falciparum D6; format: cell-based, Plasmodium falciparum; details: Plasmodium falciparum
# Procedure: as §1
# [3] = test system: P. falciparum strain TM91C235; assay: labeled hypoxanthine susceptibility assay, P. falciparum TM91C235; format: cell-based, Plasmodium falciparum; details: Plasmodium falciparum
# Procedure: as §1
# [4] = test system: P. falciparum strain TM90C2A; assay: labeled hypoxanthine susceptibility assay, P. falciparum TM90C2A; format: cell-based, Plasmodium falciparum
# Procedure: as §1
# [5] = test system: rodent macrophage (RAW) cell line; assay: cells; details: Mus musculus, Macrophage, read-out: Macrophage IC50
# Procedure: (§2) General cytotoxicity was assessed by first determining LC50 's against a rodent macrophage (RAW) cell line using the 3-(4,5-dimethylthiazole-2-yl)-2,5-diphenyltetrazolium bromide (MTT) assay as described in one of our earlier studies. This screen was conducted to identify compounds that may require de-selection due to generalized toxicity. […] In vitro neurocytotoxicity was assessed by determining LC50s against primary mouse neurons using the MTT assay as described previously. Inhibition of the A2A and A1 receptors was determined at 200 nM in duplicate by Caliper Biosciences (Hanover, Maryland).
# [6] = in vitro; details: mouse
# Procedure: as §2
# [7] = metabolic stability in mouse liver microsomes; format: in vitro ADME; details: pH 7.4; mouse liver microsomes, 1 μM; read-out: Half-life in mouse micro
# Procedure: (§3) Interesting compounds were also submitted for drug-drug interaction and metabolic stability assays. Low IC50s against specific cytochrome P450 isoforms may indicate the potential for a harmful drug interaction to occur in vivo with substrates of that isoform. A lack of metabolic stability in vitro may indicate potential metabolic instability in vivo, and, therefore, a shorter half-life. Drug interaction potential was evaluated in vitro using BD Gentest (Franklin Lakes, NJ) CYP450 inhibition kits as recommended by the manufacturer. Metabolic stability assessments were conducted using in vitro liver microsomes. […] The reaction is started with the addition of 1 U/mL glucose-6-phosphate dehydrogenase G6PD. The mixture is incubated on a shaking platform at 37°C, and aliquots are taken and quenched with the addition of an equal volume of cold acetonitrile at 0, 10, 20, 30, and 60 min. Samples are centrifuged at 3700 rpm for […] at 20°C to remove debris. Sample quantification is carried out by LC/MS, and metabolic half-life is calculated by log plots of the total ion chromatograph area remaining.
# [8] = biological target: T1, CYP450 1A2 (Homo sapiens, UniProt P05177); assay: CYP450 inhibition kit (drug-drug interaction), 1A2; format: biochemical
# T1 construct: purchased BD Gentest (Franklin Lakes, NJ)
# T1 sequence (P05177 1-516): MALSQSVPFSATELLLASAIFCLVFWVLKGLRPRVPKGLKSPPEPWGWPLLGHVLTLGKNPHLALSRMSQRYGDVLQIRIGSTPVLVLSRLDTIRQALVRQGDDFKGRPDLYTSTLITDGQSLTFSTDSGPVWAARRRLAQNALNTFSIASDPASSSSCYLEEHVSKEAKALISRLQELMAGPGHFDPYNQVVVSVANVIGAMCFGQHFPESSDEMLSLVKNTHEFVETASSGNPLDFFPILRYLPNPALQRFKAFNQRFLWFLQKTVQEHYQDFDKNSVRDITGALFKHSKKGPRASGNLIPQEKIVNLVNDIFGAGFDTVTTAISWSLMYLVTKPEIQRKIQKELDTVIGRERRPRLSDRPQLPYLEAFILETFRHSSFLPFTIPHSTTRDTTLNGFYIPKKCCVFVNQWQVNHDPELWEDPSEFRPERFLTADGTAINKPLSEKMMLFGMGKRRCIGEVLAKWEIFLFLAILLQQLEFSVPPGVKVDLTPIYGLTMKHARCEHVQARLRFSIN
# Procedure: as §3, with “Low” for “Interesting compounds were also submitted for drug-drug interaction and metabolic stability assays. Low”
# [9] = biological target: T2, CYP450 2C9 (Homo sapiens, UniProt P11712); assay: CYP450 inhibition kit (drug-drug interaction), 2C9; format: biochemical
# T2 construct: purchased BD Gentest (Franklin Lakes, NJ)
# T2 sequence (P11712 whole entry): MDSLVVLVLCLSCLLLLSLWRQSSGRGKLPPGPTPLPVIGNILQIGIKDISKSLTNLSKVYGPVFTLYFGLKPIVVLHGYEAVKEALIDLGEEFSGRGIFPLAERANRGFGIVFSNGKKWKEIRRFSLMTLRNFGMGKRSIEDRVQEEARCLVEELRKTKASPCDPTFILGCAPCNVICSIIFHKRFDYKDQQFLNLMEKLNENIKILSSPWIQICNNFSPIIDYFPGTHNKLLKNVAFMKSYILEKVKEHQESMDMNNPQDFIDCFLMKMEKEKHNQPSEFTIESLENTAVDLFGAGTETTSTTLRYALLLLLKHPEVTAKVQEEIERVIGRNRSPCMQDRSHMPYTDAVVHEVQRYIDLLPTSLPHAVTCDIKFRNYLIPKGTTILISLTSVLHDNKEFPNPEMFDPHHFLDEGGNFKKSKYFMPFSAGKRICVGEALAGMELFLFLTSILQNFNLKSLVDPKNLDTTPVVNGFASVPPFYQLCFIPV
# Procedure: as §3, with “Low” for “Interesting compounds were also submitted for drug-drug interaction and metabolic stability assays. Low”
# [10] = biological target: T3, CYP450 2C19 (Homo sapiens, UniProt P33261); assay: CYP450 inhibition kit (drug-drug interaction), 2C19; format: biochemical
# T3 construct: purchased BD Gentest (Franklin Lakes, NJ)
# T3 sequence (P33261 whole entry): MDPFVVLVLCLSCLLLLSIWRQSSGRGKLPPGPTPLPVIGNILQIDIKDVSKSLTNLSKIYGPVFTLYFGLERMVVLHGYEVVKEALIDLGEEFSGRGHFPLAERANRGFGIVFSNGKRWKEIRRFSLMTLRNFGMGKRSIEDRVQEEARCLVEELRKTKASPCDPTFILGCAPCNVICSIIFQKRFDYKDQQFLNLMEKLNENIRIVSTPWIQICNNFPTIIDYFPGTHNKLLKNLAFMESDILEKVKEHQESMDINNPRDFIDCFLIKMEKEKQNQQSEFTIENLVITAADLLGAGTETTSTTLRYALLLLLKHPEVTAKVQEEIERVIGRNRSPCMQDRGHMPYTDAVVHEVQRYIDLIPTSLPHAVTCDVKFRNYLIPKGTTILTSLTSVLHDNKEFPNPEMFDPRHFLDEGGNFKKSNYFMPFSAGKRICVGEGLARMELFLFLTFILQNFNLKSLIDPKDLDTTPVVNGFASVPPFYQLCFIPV
# Procedure: as §3, with “Low” for “Interesting compounds were also submitted for drug-drug interaction and metabolic stability assays. Low”
# [11] = biological target: T4, CYP450 2D6 (Homo sapiens, UniProt P10635); assay: CYP450 inhibition kit (drug-drug interaction), 2D6; format: biochemical
# T4 construct: purchased BD Gentest (Franklin Lakes, NJ)
# T4 sequence (P10635 whole entry): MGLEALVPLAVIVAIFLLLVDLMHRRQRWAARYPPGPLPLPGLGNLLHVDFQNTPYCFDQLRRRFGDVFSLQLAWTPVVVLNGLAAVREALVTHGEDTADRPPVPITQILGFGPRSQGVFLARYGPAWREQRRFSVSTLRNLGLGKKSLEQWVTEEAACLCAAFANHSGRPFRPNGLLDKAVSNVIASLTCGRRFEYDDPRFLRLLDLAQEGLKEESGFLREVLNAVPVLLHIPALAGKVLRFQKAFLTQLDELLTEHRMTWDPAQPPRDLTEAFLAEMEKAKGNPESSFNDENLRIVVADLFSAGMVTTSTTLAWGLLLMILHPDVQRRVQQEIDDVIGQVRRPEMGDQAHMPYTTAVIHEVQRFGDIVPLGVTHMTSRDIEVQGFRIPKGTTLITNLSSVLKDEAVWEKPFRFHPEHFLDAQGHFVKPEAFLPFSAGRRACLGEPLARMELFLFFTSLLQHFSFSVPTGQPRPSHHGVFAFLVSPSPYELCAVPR
# Procedure: as §3, with “Low” for “Interesting compounds were also submitted for drug-drug interaction and metabolic stability assays. Low”
# [12] = biological target: T5, CYP450 3A4 (Homo sapiens, UniProt P08684); assay: CYP450 inhibition kit (drug-drug interaction), 3A4; format: biochemical
# T5 construct: purchased BD Gentest (Franklin Lakes, NJ)
# T5 sequence (P08684 whole entry): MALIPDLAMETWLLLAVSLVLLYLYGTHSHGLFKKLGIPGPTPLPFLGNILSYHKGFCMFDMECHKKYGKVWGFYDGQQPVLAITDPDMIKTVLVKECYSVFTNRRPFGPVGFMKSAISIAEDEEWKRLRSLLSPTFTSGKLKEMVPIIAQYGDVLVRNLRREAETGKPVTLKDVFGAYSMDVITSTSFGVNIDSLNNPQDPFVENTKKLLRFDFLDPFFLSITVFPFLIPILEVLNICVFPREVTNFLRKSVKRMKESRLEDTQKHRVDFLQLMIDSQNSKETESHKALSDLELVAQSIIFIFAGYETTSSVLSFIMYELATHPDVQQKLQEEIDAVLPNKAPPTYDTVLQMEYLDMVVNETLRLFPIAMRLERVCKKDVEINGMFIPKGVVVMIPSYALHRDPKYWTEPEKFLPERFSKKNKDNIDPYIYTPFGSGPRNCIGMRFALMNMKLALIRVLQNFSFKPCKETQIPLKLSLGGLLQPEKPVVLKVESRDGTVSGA
# Procedure: as §3, with “Low” for “Interesting compounds were also submitted for drug-drug interaction and metabolic stability assays. Low”
# [13] = D6, read-out: IC90 Pf D6, P. falciparum D6, mefloquine: historical mean +/- SD (n)
# [14] = D6, read-out: PF D6 IC90, P. falciparum D6
# [15] = Plasmodium falciparum, TM90C2A, read-out: IC90 Pf C2A
# [16] = Plasmodium falciparum, TM90C2A, read-out: PF C2A IC90
# [17] = Plasmodium falciparum, TM90C2A, read-out: Pf C2A IC90 nM values calculated using MW in Column C
# [18] = Plasmodium falciparum, TM90C2A; read-out: IC90 PfC2A
# [19] = Plasmodium falciparum, TM90C2A, read-out: IC90 PfC2A
Compound,"IC90 ([1]; W2, read-out: IC90 Pf W2) [µg/mL]","IC90 ([1]; W2, read-out: PF W2 IC90) [µg/mL]","IC90 [2, 13] [µg/mL]","IC90 [2, 14] [µg/mL]",IC90 ([3]; read-out: IC90 Pf C235) [µg/mL],IC90 ([3]; read-out: PF C235 IC90) [µg/mL],"IC90 [4, 15] [µg/mL]","IC90 [4, 16] [µg/mL]","IC90 [4, 17] [nM]","IC90 [4, 18] [nM]",CSI (C2A/W2) ([4]; ratio of IC90 C2A to IC90 W2),IC50 [5] [µM],CC50 [6] [µM],half-life at 1 μM [7] [min],IC50 [8] [µM],IC50 [9] [µM],IC50 [10] [µM],IC50 [11] [µM],IC50 [12] [µM],"IC90 [4, 19] [nM]"
CC(C)CC(C)NCC(O)c1cc(C(F)(F)F)nc2c(C(F)(F)F)cccc12 (centres unmarked) [WR308413],0.0011,0.001,0.012,0.0116,0.015,0.0147,0.0075,0.00748,18,171,7.5,8.5,> 120,19,26,19,5.8,1,> 40,–
CC1C(NCC(O)c2cc(C(F)(F)F)nc3c(C(F)(F)F)cccc23)CC2CC1C2(C)C (centres unmarked) [WR308446],< 0.001,< 0.00048,0.014,0.0143,0.019,0.0189,0.016,0.0155,–,34,–,8.85,48,13,> 40,16,14,9.1,> 40,–
OC(CNC1CCC1)c1cc(C(F)(F)F)nc2c(C(F)(F)F)cccc12 (centres unmarked) [WR308266],0.0061,0.00609,0.025,0.0245,0.024,0.0243,0.052,0.0517,137,–,8.5,13.1,59,22,2.4,12,7.6,1.4,5.7,137
C=CCNCC(O)c1cc(C(F)(F)F)nc2c(C(F)(F)F)cccc12 (centres unmarked) [WR308255],0.0038,0.00375,0.015,0.0145,0.019,0.0187,0.037,0.0368,101,–,9.8,58.4,> 120,25,1.5,25,25,2.9,18,101
CCC(CC)CNCC(O)c1cc(C(F)(F)F)nc2c(C(F)(F)F)cccc12 (centres unmarked) [WR308388],0.0011,0.00112,0.0067,0.00671,0.011,0.0109,0.01,0.0102,–,23,9.1,15.7,56,16,1.2,13,3.4,0.8,33,–
